Data: PMC8869097, “Benzothiazole Derivatives as Multifunctional Antioxidant Agents for Skin Damage: Structure–Activity Relationship of a Scaffold Bearing a Five-Membered Ring System” (Antioxidants, 2022)
Like-named read-outs stand apart in the source and are kept apart here.

What was measured:
In vitro DPPH test = settings: compounds at 1 mg/mL, 30 min, 517 nm
Method: The assay performed is adapted from Wang et al.. Briefly, 0.750 mL of 1 mg/mL solutions of the tested compounds was treated with 1.5 mL of DPPH solution in MeOH. The absorbance of samples, stored for 30 min at room temperature in the dark, was read on the spectrophotometer at 517 nm. The values obtained were converted into a radical inhibition percentage (%) by Equation (1). DPPH radical scavenging capacity (%) = [1 − A1/A0] × 100%(1) where A0 and A1 were, respectively, the absorbance without and with the sample. Subsequently, the compound with the best profile was tested in order to determine the IC50 (µg/mL). A linear regression plot is performed to calculate the actual sample concentration required to eliminate 50% of the DPPH free radicals.
The antioxidant activity of a molecule is very important and, if present, it can be synergistic with the SPF described above in reducing the damage that is ROS-induced by UV rays. For this reason, the synthesized compounds were assayed in vitro to assess their antioxidant profiles by means of the DPPH and FRAP assays (Table 2). Regarding the ability to scavenge the stable radical 2,2-diphenyl-1-picrylhydrazyl (DPPH), it was decided to investigate first the compounds synthesized at the same concentration (1 mg/mL) and evaluate the percentage of inhibition of the radical DPPH.

[1] = Ferric Reducing Antioxidant Power assay (FRAP); settings: 593 nm
Method: The FRAP assay is a widely used method based on a colorimetric reaction linked to a redox and on the use of antioxidants as reducing agents.
The test evaluates the capacity of a sample to reduce ferric to ferrous ions in the presence of TPTZ (2,4,6-tripyridyl-s-triazine). The reaction mixture consists of 0.1 M acetate buffer pH 3.6, 10 mmol/L TPTZ in 40 mmol/HCl, and 20 mmol/L ferric chloride in the ratio 10/1/1 (v:v:v) as described by Benzie et al.. A total of 1.9 mL of reagent was added to 0.1 mL of suitably diluted sample or solvent. The absorbance values were measured using the UV-VIS spectrophotometer at 593 nm and expressed as µmol TE/g compound.

Microsporum canis = assay: Antidermatophyte activity, plaque growth inhibition; type: cell-based, Microsporum canis CBS 131,110; settings: read-out: % Inhibition Growth M. canis
Method: (§1) The dermatophytes used in this study were Epidermophyton floccosum var. floccosum (Netherlands) CBS 358.93 strain, Trichophyton tonsurans (Netherlands) CBS 483.76 strain, Trichophyton mentagrophytes (Netherlands) CBS 160.66 strain, Microsporum canis (Iran) CBS 131,110 strain, and Microsporum gypseum (Iran) CBS 130,948 strain. All dermatophytes were maintained at 4 °C as agar slants on SDA. Candida albicans (ATCC 10231) was maintained at 4 °C on SDA plate.
(§2) The in vitro antifungal activity against the five selected dermatophytes was evaluated, as previously described, using the plaque growth inhibition method. All compounds were evaluated at the final concentration of 100 µg/mL. The percentages of growth inhibition according to Equation (5) were calculated as the average of three different experiments. I = [(C − T)/C] × 100%,(5) where I is the percentage value of growth inhibition, C is the measure of the diameter of the control circular mycelial inoculum (mm) and T is the extended diameter of the treated mycelial inoculum (mm).
(§3) All synthesized benzothiazole derivatives were evaluated to evaluate their in vitro antifungal activity against the five pathogenic dermatophytes that cause the most common dermatomycoses: Microsporum gypseum, Microsporum canis, Trichophyton mentagrophytes, Trichophyton tonsurans and Epidermophyton floccosum. All compounds were tested at a concentration of 100 µg/mL in DMSO, to evaluate the ability to inhibit the growth of dermatophyte cultures in Sabouraud Dextrose Agar (SDA). Briefly, room temperature incubation was performed and dermatophyte inhibition assessed by measuring the colony diameter at each disc for 7 days. The results are shown in Table 3 and were determined as the average of three different experiments.

Trichophyton tonsurans = assay: as above; type: cell-based, Trichophyton tonsurans CBS 483.76; settings: read-out: % Inhibition Growth T. tonsurans
Method: as §1, §2, §3

[2] = test system: Trichophyton mentagrophytes; assay: as above; type: cell-based, Trichophyton mentagrophytes CBS 160.66; settings: read-out: % Inhibition Growth T. mentagrophytes
Method: as §1, §2, §3

Epidermophyton floccosum = assay: as above; type: cell-based, Epidermophyton floccosum var. floccosum CBS 358.93; settings: read-out: % Inhibition Growth E. floccosum
Method: as §1, §2, §3

Microsporum gypseum = assay: as above; type: cell-based, Microsporum gypseum CBS 130,948; settings: Nannizzia gypsea, read-out: % Inhibition Growth M. gypseum
Method: as §1, §2, §3

[3] = UV spectra of compounds in solution (filtering parameters); type: physicochemical
Method: The evaluation of the sun protection parameters has been carried out using a UV-Vis spectrophotometer. The absorbance of the solutions of the test compounds dissolved in the different solvents (DMSO, MeOH, DMSO–H2O 4:6, DMSO–H2O 6:4, HE) at a concentration of 0.0015 (±0.000005)% was recorded in the range 290–400 nm using a 1 cm quartz cell at 1 nm intervals. It was decided to evaluate the profile of the compounds in the Peg-7 Glyceryl Cocoate (HE) oil, which is the emollient of choice to solubilize the compounds in a formulation suitable for in vivo analysis. Wavelength absorbance is in relationship with transmittance (T (λ)) from Equation (2) A (λ) = […](2) where T (λ) is the fraction of incident irradiance that is transmitted through a sample.
The three parameters were determined, respectively, in DMSO and in methanol in order to perform a comparison (Table S1).
Since DMSO is a solvent with characteristics very close to those of an oil, the analysis was also carried out in solutions that mimic the possible conditions of a formulation. For this reason, the 4:6 and 6:4 proportions of DMSO–H2O were chosen to evaluate the choice of an oil-in-water or water-in-oil emulsion.

[4] = Filtering parameters (in vitro SPF, UVAPF, UVA/UVB, critical wavelength) of W/O formulations on PMMA plates; type: physicochemical
Method: The synthesized derivatives were incorporated at increasing concentrations (1%, 2% and 3%) in a topical W/O cosmetic standard formulation, to evaluate the filtering parameters, having the following ingredients composition.
INCI (International Nomenclature Cosmetic Ingredients): aqua, glycerin, Euxyl PE 9010, xanthan gum, ceteareth-12, ceteareth-20, sterearic acid, butylhydroxytoluene, myritol, PEG-7 glyceryl cocoate and 10% sodium solution.
Briefly, the protocol is to finger spread 32.5 mg of each formulation onto 25 cm2 PMMA plates. Each formulation was tested in triplicate by recording five measurements for each dish, after incubation in the dark for 15–30 min at room temperature. UV transmittance data were recorded in the range 290–400 nm using a UV-VIS spectrophotometer.
Blank plate, SPF, UVA-PF and Critical Wavelength were achieved through SPF Calculator Software (version 2.1), Shimadzu, Milan, Italy) as previously reported.
For the determination of the SPF in vitro of the samples in formulation it was decided to use an internal method, developed by us previously and based on the adaptation of the ISO 24443: 2012 [38]. The transmittance spectrum, processed with a specific software (SPF Calculator), made it possible to obtain the SPF, UVAPF, critical lambda and UVA/UVB ratio values of the formulations containing the selected active ingredients (Table 1).

SMILES | melting point | A (absorbance) ([3]; DMSO) | ε (molar extinction coefficient) ([3]; DMSO) | λmax ([3]; DMSO) | A (absorbance) ([3]; MeOH) | ε (molar extinction coefficient) ([3]; MeOH) | λmax ([3]; MeOH) | DPPH (% Inhibition) (In vitro DPPH test) | FRAP [1] | inhibition at 100 µg/mL (Microsporum canis; 100 μg/mL, SDA) | inhibition at 100 µg/mL (Trichophyton tonsurans; 100 μg/mL, SDA) | inhibition at 100 µg/mL ([2]; 100 μg/mL, SDA) | inhibition at 100 µg/mL (Epidermophyton floccosum; 100 μg/mL, SDA) | inhibition at 100 µg/mL (Microsporum gypseum; 100 μg/mL, SDA) | other results
O=C(O)/C=C/c1ccc(O)c(O)c1 [Caffeic acid, reference compound] |  |  |  |  |  |  |  | 80.15 ± 1.24% | 10125.48 ± 32.87 μmolTE/g |  |  |  |  |  | 
NS(=O)(=O)c1ccc2nc(-c3ccc[nH]3)sc2c1 [Compound 8c, 2-(1H-Pyrrol-2-Yl)benzothiazole-6-Sulfonamide] | > 250 °C | 0.700 | 13944.22 | 344.37 nm | 0.760 | 13263.53 | 341.40 nm | 45.24 ± 2.78% | 119.12 ± 1.49 μmolTE/g | 23.3 ± 0.86% | 2.25 ± 0.03% | 2.36 ± 0.17% | 24.7 ± 0.71% | 23.1 ± 0.48% | 
O=S(=O)(O)c1ccc2[nH]c(-c3ccccc3)nc2c1 [PBSA, 2-Phenyl-1H-benzo[d]imidazole-5-sulfonic acid, reference compound] |  | 1.130 | 23839.66 | 310.50 nm | 1.460 | 30801.69 |  | <LOQ * | <LOQ * |  |  |  |  |  | inhibition at 100 µg/mL (Microsporum canis): < 0%; inhibition at 100 µg/mL (Trichophyton tonsurans): < 0%; inhibition at 100 µg/mL [2]: < 0%; inhibition at 100 µg/mL (Epidermophyton floccosum): 7.28 ± 0.56%; inhibition at 100 µg/mL (Microsporum gypseum): 9.44 ± 0.35%; SPF ([4]; 1% in W/O formulation): 3.22; UVAPF ([4]; 1% in W/O formulation): 0.94; λc ([4]; 1% in W/O formulation): 319 nm; SPF ([4]; 2% in W/O formulation): 4.63; UVAPF ([4]; 2% in W/O formulation): 0.94; λc ([4]; 2% in W/O formulation): 321 nm; SPF ([4]; 3% in W/O formulation): 5.09; UVAPF ([4]; 3% in W/O formulation): 1.02; λc ([4]; 3% in W/O formulation): 324 nm

The next lines start with results.

melting point | A (absorbance) ([3]; DMSO) | ε (molar extinction coefficient) ([3]; DMSO) | λmax ([3]; DMSO) | A (absorbance) ([3]; MeOH) | ε (molar extinction coefficient) ([3]; MeOH) | λmax ([3]; MeOH) | SMILES | DPPH (% Inhibition) (In vitro DPPH test) | FRAP [1] | inhibition at 100 µg/mL (Microsporum canis; 100 μg/mL, SDA) | inhibition at 100 µg/mL (Trichophyton tonsurans; 100 μg/mL, SDA) | inhibition at 100 µg/mL ([2]; 100 μg/mL, SDA) | inhibition at 100 µg/mL (Epidermophyton floccosum; 100 μg/mL, SDA) | inhibition at 100 µg/mL (Microsporum gypseum; 100 μg/mL, SDA) | other results
> 250 °C | 0.370 | 5308.47 | 348.87 nm | 0.190 | 3089.43 | 341.63 nm | O=C(O)c1ccc2nc(-c3ccc[nH]3)sc2c1 [Compound 8b, 2-(1H-Pyrrol-2-Yl)benzothiazole-6-Carboxylic Acid] | 5.71 ± 0.37% | 373.15 ± 1.27 μmolTE/g | < 0% | 5.45 ± 0.12% | < 0% | < 0% | < 0% | 
> 250 °C | 1.36 | 23901.58 | 331.90 nm | 1.02 | 19318.18 | 327.57 nm | O=C(O)c1ccc2nc(-c3ccco3)sc2c1 [Compound 9b, 2-(Furan-2-Yl)benzothiazole-6-Carboxylic Acid] | 9.49 ± 0.04% | 66.07 ± 8.23 μmolTE/g | 14.5 ± 0.83% | 29.8 ± 1.23% | < 0% | 5.48 ± 0.12% | 18.1 ± 0.97% | 
> 250 °C | 0.59 | 10332.75 | 329.00 nm | 0.740 | 13805.97 | 325.30 nm | NS(=O)(=O)c1ccc2nc(-c3ccco3)sc2c1 [Compound 9c, 2-(Furan-2-Yl)benzothiazole-6-Sulfonamide] | 64.92 ± 0.91% | 150.34 ± 11.01 μmolTE/g | 19.5 ± 1.2% | < 0% | 10.97 ± 0.08% | 36.4 ± 1.25% | 17.82 ± 0.06% | 
> 250 °C | 1.160 | 17818.74 | 340.00 nm | 1.140 | 21268.66 | 334.57 nm | O=C(O)c1ccc2nc(-c3cccs3)sc2c1 [Compound 10b, 2-(Thiophen-2-Yl)benzothiazole-6-Carboxylic Acid] | 46.04 ± 0.07% | 133.91 ± 8.13 μmolTE/g | 27.6 ± 1.47% | 65.5 ± 1.58% | 14.2 ± 1.01% | 28.3 ± 1.04% | 18.5 ± 1.23% | 
